Where two headings read alike, the source gives them in different places.
What was measured:
[1] = biological target: T1, recombinant Abl1 kinase (Homo sapiens, UniProt P00519); settings: Figure 2A, compounds with longer N-9 substituents; read-out: IC50 Bcr-Abl; cited from earlier work
T1 construct: made in house

[2] = tested on: KCL22 F4 (E255K, 100%); assay: Cytotoxicity assay (resazurin) on KCL22 subclone F4; assay type: cell-based; settings: Homo sapiens, KCL-22, read-out: GI50 KCL22 F4 E255K (100%), 72 h
Procedure: (§1) Human cell lines KCL22 and BV173 were obtained from the German Collection of Microorganisms and Cell Cultures, K562 and HEK-293T from the European Collection of Authenticated Cell Cultures. KBM5 cell line was kindly gifted by Vladimír Divoký. Development of KCL22 subclones B8 (T315I, 100%), F4 (E255K, 100%), and B10 (Y253H, 50%) was reported previously. All cell lines were cultivated in humidified incubator at 37 °C and in 5% CO2 according to the provider’s instructions in appropriate media supplemented with 10% fetal bovine serum, penicillin (100 IU/mL), streptomycin (100 µg/mL), and glutamine (4 mM).
(§2) Cytotoxicity was determined using resazurin, an indicator dye to measure oxidation-reduction reactions occurring in the mitochondria of live cells. The cells were seeded into 96-well plates and treated with compounds for 72 h (six different doses of each, in triplicate). After treatment, resazurin (Merck, Darmstadt, Germany) solution was added for 4 h, and the fluorescence of formed resorufin corresponding to live cell quantity was measured at 544 nm/590 nm (excitation/emission) using a Fluoroskan Ascent microplate reader (Labsystems, Vantaa, Finland).

[3] = tested on: K562; assay: Cytotoxicity assay (resazurin) on K562; assay type: cell-based; settings: Homo sapiens, 72 h
Procedure: as §1, §2

[4] = tested on: KCL22 B8 cell line containing Bcr-Abl^T315I; assay: Cell cycle flow cytometry, KCL22 B8; assay type: cell-based, human; settings: 24 h treatment
Procedure: The cell lines were seeded into 96-well plates and then treated with compounds for 24 h. After treatment, the cells were directly stained by adding 5 × staining solution (17 mM trisodium citrate dihydrate, 0.5% IGEPAL® CA-630, 7.5 mM spermine tetrahydrochloride, 2.5 mM Tris; pH 7.6 containing 50 μg/mL propidium iodide). […] Cell cycle distribution was analyzed using ModFit LT 5.0.9 (Verity Software House, Augusta, ME, USA).

[5] = tested on: KBM5; assay: Cytotoxicity assay (resazurin) on KBM5; assay type: cell-based; settings: Homo sapiens, KBM5; 72 h, resazurin assay; read-out: GI50 KBM5
[6] = tested on: KCL22 B10 (Y253H, 50%); assay: Cytotoxicity assay (resazurin) on KCL22 subclone B10; assay type: cell-based; settings: Homo sapiens, KCL-22, read-out: GI50 KCL22 B10 Y253H (50%), 72 h
Procedure: as §1, §2

[7] = tested on: KCL22 B8 (T315I, 100%); assay: Cytotoxicity assay (resazurin) on KCL22 subclone B8; assay type: cell-based; settings: Homo sapiens, KCL-22, read-out: GI50 KCL22 B8 T315I (100%), 72 h
Procedure: as §1, §2

[8] = tested on: HEK-293T; assay: Cytotoxicity assay (resazurin) on non-neoplastic HEK-293T; assay type: cell-based; settings: Homo sapiens, 72 h, non-neoplastic cells
Procedure: as §1, §2

[9] = tested on: KCL22 cells containing Bcr-Abl^WT; assay: Cytotoxicity assay (resazurin) on KCL22 WT; assay type: cell-based, human
[10] = tested on: BV173; assay: Cytotoxicity assay (resazurin) on BV173; assay type: cell-based; settings: Homo sapiens, BV-173, 72 h
Procedure: as §1, §2

[11] = biological target: T1, recombinant Abl1 kinase; assay: Recombinant Abl1 kinase inhibition assay ([γ-33P]ATP, peptide substrate); assay type: biochemical
Procedure: The reactions were stopped by adding 5 µL of 3% aq. H3PO4. […] H3PO4, and air-dried.

[12] = tested on: KCL22 models (WT, B8, F4, B10); assay: Cytotoxicity across all KCL22 models; assay type: cell-based; settings: Homo sapiens, KCL-22, read-out: GI50 in all KCL22 models (span over models)
Procedure: as §1, §2

[13] = tested on: p-Crkl, p-STAT5, PARP, cyclin A in WT KCL22 cell line; assay: Immunoblotting of Bcr-Abl pathway proteins, WT KCL22; assay type: cell-based, human; settings: immunoblot, 24 h treatment
Procedure: (§3) Cell lysates were separated on SDS–polyacrylamide gels and electroblotted onto nitrocellulose membranes. After blocking, overnight incubation with specific primary antibodies was performed, followed by wash and incubation with peroxidase-conjugated secondary antibodies (Cell Signalling). Peroxidase activity was detected with SuperSignal West Pico reagents (Thermo Scientific, Waltham, MA, USA) using a CCD camera LAS-4000 (Fujifilm, Tokyo, Japan). The following specific primary antibodies were used: Cell Signalling: anti-STAT5 (#94205), anti-p-STAT5 Y694 (#9351), anti-Crkl (#3182), anti-p-Crkl Y207 (#3181), anti-cyclin A (#4656), anti-p-Bcr Y177 (#3901), and anti-PARP (#9532); Santa Cruz Biotechnology: anti-β-actin (#sc-47778).

[14] = tested on: KCL22 B10 (Y253H); assay: Cell cycle flow cytometry, KCL22 B10; assay type: cell-based, human; settings: 24 h treatment
Procedure: (§4) The cell lines were seeded into 96-well plates and then treated with compounds for 24 h. After treatment, the cells were directly stained by adding 5 × staining solution (17 mM trisodium citrate dihydrate, 0.5% IGEPAL® CA-630, 7.5 mM spermine tetrahydrochloride, 2.5 mM Tris; pH 7.6 containing 50 μg/mL propidium iodide). DNA content was measured by flow cytometry using a 488 nm laser (BD FACS Verse with software BD FACSuite™, version 1.0.6.). Cell cycle distribution was analyzed using ModFit LT 5.0.9 (Verity Software House, Augusta, ME, USA).

[15] = tested on: KCL22 F4 (E255K); assay: Cell cycle flow cytometry, KCL22 F4; assay type: cell-based, human; settings: 24 h treatment
Procedure: as §4

[16] = tested on: STAT5 phosphorylation, PARP cleavage in KCL22 B10; assay: Immunoblotting of Bcr-Abl pathway proteins, KCL22 B10; assay type: cell-based, human; settings: immunoblot, 24 h treatment
Procedure: as §3

[17] = tested on: KCL22 WT cells; assay: Cell cycle flow cytometry, KCL22 WT; assay type: cell-based, human; settings: 24 h treatment, increasing concentration up to 5 µM
Procedure: as §4

[18] = tested on: STAT5 phosphorylation, PARP cleavage in KCL22 F4; assay: Immunoblotting of Bcr-Abl pathway proteins, KCL22 F4; assay type: cell-based, human; settings: immunoblot, 24 h treatment
Procedure: as §3

[19] = tested on: KBM5, BV173, K562 (Bcr-Abl rearranged cell lines); assay: Cytotoxicity across cell lines with Bcr-Abl rearrangement; assay type: cell-based; settings: Homo sapiens, read-out: GI50 in Bcr-Abl rearranged cell lines (span over cell lines)
Procedure: as §1, §2

[20] = as listed in Table S1, Bcr-Abl WT, read-out: IC50 (Table S1)
[21] = from the IC50 of Table S1, read-out: pIC50 (Table S1) (converted)
[22] = recombinant Abl1, 1 µM ATP, at least three independent experiments, read-out: IC50 Abl
[23] = Homo sapiens, KCL-22, 72 h, read-out: GI50 KCL22 WT

T1 sequence (P00519 whole entry): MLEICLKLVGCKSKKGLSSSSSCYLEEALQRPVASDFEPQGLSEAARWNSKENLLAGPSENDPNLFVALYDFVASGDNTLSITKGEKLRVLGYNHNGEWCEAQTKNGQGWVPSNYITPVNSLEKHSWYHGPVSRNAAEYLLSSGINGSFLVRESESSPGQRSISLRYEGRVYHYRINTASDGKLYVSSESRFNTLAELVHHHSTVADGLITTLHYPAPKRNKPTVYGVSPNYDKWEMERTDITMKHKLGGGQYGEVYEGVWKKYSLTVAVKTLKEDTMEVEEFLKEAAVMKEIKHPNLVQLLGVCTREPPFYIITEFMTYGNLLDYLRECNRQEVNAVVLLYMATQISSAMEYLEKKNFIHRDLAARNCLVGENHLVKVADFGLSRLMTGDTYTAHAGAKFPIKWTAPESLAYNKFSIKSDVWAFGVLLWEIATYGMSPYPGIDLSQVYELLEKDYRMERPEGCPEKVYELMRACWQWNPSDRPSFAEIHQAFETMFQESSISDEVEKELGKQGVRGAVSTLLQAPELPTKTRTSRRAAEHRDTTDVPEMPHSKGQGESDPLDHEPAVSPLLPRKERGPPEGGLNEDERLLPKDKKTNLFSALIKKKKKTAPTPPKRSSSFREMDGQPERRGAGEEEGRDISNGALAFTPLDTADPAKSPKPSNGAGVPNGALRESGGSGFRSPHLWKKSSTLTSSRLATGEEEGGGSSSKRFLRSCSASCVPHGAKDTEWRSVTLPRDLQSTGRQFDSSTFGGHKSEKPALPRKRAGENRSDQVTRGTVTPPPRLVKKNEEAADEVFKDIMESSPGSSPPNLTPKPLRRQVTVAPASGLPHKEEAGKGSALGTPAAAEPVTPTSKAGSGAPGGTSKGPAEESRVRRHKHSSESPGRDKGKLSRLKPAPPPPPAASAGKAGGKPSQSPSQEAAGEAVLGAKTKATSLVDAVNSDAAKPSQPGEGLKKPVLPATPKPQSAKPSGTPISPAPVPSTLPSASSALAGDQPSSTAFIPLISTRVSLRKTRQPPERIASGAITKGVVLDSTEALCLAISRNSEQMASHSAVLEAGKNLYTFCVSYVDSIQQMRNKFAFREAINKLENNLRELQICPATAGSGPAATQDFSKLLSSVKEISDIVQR

Row | IC50 [11, 20] [µM] | IC50 [11, 21] [µM] | IC50 [11, 22] [µM] | melting point [°C] | Compound | GI50 [2] [µM] | GI50 [3] [µM] | Effect on cell cycle distribution, KCL22 B8 (T315I) [4] | GI50 [5] [µM] | GI50 [6] [µM] | GI50 [7] [µM] | GI50 [8] [µM] | GI50 [10] [µM] | GI50 [9, 23] [µM] | other results
1 | 0.13 | 0.13 | 0.131 ± 0.071 | – | CC(C)CCn1cnc2c(Nc3cccc(F)c3)nc(Nc3ccc(N4CCN(CCO)CC4)cc3)nc21 [Compound 11e, 2-(4-(4-((6-((3-Fluorophenyl)amino)-9-isopentyl-9H-purin-2-yl)amino)phenyl)piperazin-1-yl)ethan-1-ol] | 5.6 ± 0.5 | 4.3 ± 0.2 | resistant | 5 ± 0.1 | 6.9 ± 0.1 | 6.9 ± 0.8 | 4.7 ± 0.7 | 3.8 ± 0.1 | 6.1 ± 0.1 | GI50 [12]: 5.6 to 6.9 µM
2 | – | 1.68 | 1.68 ± 0.01 | 135.1 to 137.1 | CCCCCCn1cnc2c(Nc3ccc(F)c(F)c3)nc(Nc3ccc(N4CCN(CCO)CC4)cc3)nc21 [Compound 11i, 2-(4-(4-((6-((3,4-Difluorophenyl)amino)-9-hexyl-9H-purin-2-yl)amino)phenyl)piperazin-1-yl)ethan-1-ol] | > 20 | 3.1 ± 0.6 | – | 5.6 ± 0.2 | > 20 | > 20 | > 20 | 4.8 ± 0.3 | > 20 | –
3 | – | 0.014 | 0.015 ± 0.01 | – | OCCN1CCN(c2ccc(Nc3nc(Nc4cccc(F)c4)c4ncn(CC5CC5)c4n3)cc2)CC1 [Compound 11b, 2-(4-(4-((9-(Cyclopropylmethyl)-6-((3-fluorophenyl)amino)-9H-purin-2-yl)amino)phenyl)piperazin-1-yl)ethan-1-ol] | 4.1 ± 0.1 | 0.7 ± 0.2 | resistant | 1.3 ± 0.1 | 2.6 ± 0.2 | 11.5 ± 1.1 | 5.5 ± 0.6 | 1.5 ± 0.2 | 2 ± 0.4 | Effect on Bcr-Abl downstream proteins, WT KCL22 [13]: downregulated the levels of p-Crkl and p-STAT5; Effect on cell cycle distribution, KCL22 B10 [14]: arrested F4 and B10 mutant models in G1 phase; Effect on cell cycle distribution, KCL22 F4 [15]: arrested F4 and B10 mutant models in G1 phase; Effect on Bcr-Abl downstream proteins, KCL22 B10 [16]: significantly pronounced in both mutant cell lines; Effect on cell cycle distribution, KCL22 WT [17]: significant block of WT cells in G1 phase; Effect on Bcr-Abl downstream proteins, KCL22 F4 [18]: significantly pronounced in both mutant cell lines; GI50 [19]: 0.7 to 1.3 µM
4 | 3.95 | 3.95 | 3.96 ± 0.51 | 133 to 134 | CN1CCN(c2ccc(Nc3nc(N)c4ncn(CC5CC5)c4n3)cc2)CC1 [Compound 13a, 9-(Cyclopropylmethyl)-N^2-(4-(4-methylpiperazin-1-yl)phenyl)-9H-purine-2,6-diamine] | > 100 | > 100 | – | > 100 | > 100 | > 100 | > 100 | > 20 | > 100 | –

The remaining lines, values behind:

Row | Compound | IC50 [11, 20] [µM] | IC50 [11, 21] [µM] | IC50 [11, 22] [µM] | melting point [°C] | GI50 [2] [µM] | GI50 [3] [µM] | Effect on cell cycle distribution, KCL22 B8 (T315I) [4] | GI50 [5] [µM] | GI50 [6] [µM] | GI50 [7] [µM] | GI50 [8] [µM] | GI50 [10] [µM] | GI50 [9, 23] [µM] | other results
5 | CC(C)CCn1cnc2c(Nc3ccc(F)c(F)c3)nc(Nc3ccc(N4CCN(C)CC4)cc3)nc21 [IV] | – | – | – | – | – | – | – | – | – | – | – | – | – | IC50 [1]: 2.28 µM
6 | Cc1cn(-c2cc(NC(=O)c3ccc(C)c(Nc4nccc(-c5cccnc5)n4)c3)cc(C(F)(F)F)c2)cn1 [Nilotinib, reference compound] | – | – | – | – | 0.789 ± 0.081 | 0.025 ± 0.01 | no effect | 0.019 ± 0.009 | 1.4 ± 0.3 | > 20 | > 10 | 0.003 | – | GI50 ([9]; 72 h, read-out: GI50 KCL22 WT): 0.047 ± 0.008 µM; GI50 ([9]; read-out: GI50 KCL22 WT, 72 h): 0.019 µM
